Laboratory results published in patent US20250177349A1, “ARYL ALKYNAMIDE DERIVATIVES” (Astellas Pharma, Inc., priority 2022, published 2025).

Test system: drug-induced Sjogren's syndrome-like salivary dysfunction
Assay: Test on drug-induced Sjogren's syndrome-like salivary dysfunction in mice
Assay type: in vivo
Conditions: female C57BL/6J mice, DMXAA 20 mg/kg s.c. four times weekly, test compound orally once a day for 8 days; FIGS. 1-3
Protocol: Female C57BL/6J mice (8-10-weeks-old) were injected subcutaneously with 20 mg/kg of DMXAA or its vehicle, 5% NaHCO3, four times at weekly intervals. From the day after the last DMXAA challenge, mice were orally administered the test compound or its vehicle once a day for 8 days. On the following day, saliva was collected from mice using a cotton swab under awake conditions, and saliva weight during 15 min was measured and evaluated as an indicator of salivary gland function.

| Structure (SMILES) | saliva production (saliva weight during 15 min) |
| --- | --- |
| O=C(C#Cc1ccc(-c2ccccc2)c(C(F)(F)F)c1)N1C[C@@H](O)[C@@H](O)C1 [Example 33, 1-[(3R,4S)-3,4-dihydroxypyrrolidin-1-yl]-3-[2-(trifluoromethyl)[1,1′-biphenyl]-4-yl]prop-2-yn-1-one] | significantly improved saliva production |
| NC(=O)C1CCN(C(=O)C#Cc2ccc(-c3ccccc3)c(C(F)(F)F)c2)CC1 [Example 34, 1-{3-[2-(trifluoromethyl)[1,1′-biphenyl]-4-yl]prop-2-ynoyl}piperidine-4-carboxamide] | significantly improved saliva production |
| N=S1(=O)CCN(C(=O)C#Cc2ccc(-c3ccccc3)c(C(F)(F)F)c2)CC1 [Example 99, 1-imino-4-{3-[2-(trifluoromethyl)[1,1′-biphenyl]-4-yl]prop-2-ynoyl}-1λ^6-thiomorpholin-1-one] | significantly improved saliva production |
